Data reported in US20180050082A1, “SERPINS FOR THE TREATMENT OF NEUROINFLAMMATORY DISEASES” (Anvil Biosciences, LLC, priority 2015, published 2018).
Entries after “also recorded” stand apart in the source; their conditions may differ.

Assays:
[1] = tested on: NMO mouse model; test: Mouse NMO model, more severe disease (25×10^6 Th17-polarized cells), disease scores, blinded study (Example 3); type: in vivo, C57BL/6 mice; conditions: for End Score (end disease score +/− SD): Day 17 post-transfer, AAT 2 mg or both i.p. daily Day 4 to Day 16; for End Score (end disease score +/− SD) / MMS +/− SD (mean maximum disease score) / Mean Day of Onset +/− SEM: Mpred 0.5 mg; for MMS +/− SD (mean maximum disease score) / Mean Day of Onset +/− SEM: AAT 2 mg or both i.p. daily Day 4 to Day 16 post-transfer; for Mean Day of Onset +/− SEM: 10 mice per cohort
Procedure: 25×10^6 cells prepared as above were adoptively transferred i.p. into recipient C57BL/6 mice. Mice received PBS, Mpred (0.5 mg), AAT (2 mg), or both AAT+Mpred as daily doses administered i.p. starting on Day 4 post-transfer until Day 16 post-transfer. Ten recipient mice per cohort. […] The bold p-values indicate significant (p<0.05) differences between the treatments when compared to PBS (control).

[2] = tested on: spleen cells of Th17-polarized cell transplanted mice restimulated with MOG peptide; test: Ex vivo cytokine measurements from spleen cells restimulated with MOG peptide, cytokine bead assay (Example 4); type: in vivo
Procedure: Ex vivo cytokine measurements from spleen cells of Th17-polarized cell transplanted mice restimulated with MOG peptide were conducted to survey effector and memory recall responses of the immune cell compartment, primarily from T cells. Spleens were collected from 6 mice per treatment cohort on Day 18. Single cell suspensions were prepared and cultured with the indicated amounts of MOG35-55 peptide. Supernatants were collected after 3 days of culture and IL-17A, IFN-γ, IL-6, or IL-2 measured by cytokine bead assay (BD Biosciences, San Jose, Calif., Cat. No. 560485). The results in this blinded study were expressed in cytokine pg/mL+/−SEM.

[3] = tested on: Neuromyelitis Optica (NMO) induced by the adoptive transfer of Th17 Experimental Autoimmune Encephalomyelitis (EAE) cells; test: NMO induced by adoptive transfer of Th17 EAE cells (15×10^6 cells), clinical scores (Example 1); type: in vivo, C57BL/6 mice; conditions: 2 mg A1AT in PBS i.p. daily day 5 to day 18; vs PBS; n=10 mice per group
Excerpt: C57BL/6 donor mice were immunized via subcutaneous injection with MOG-35-55 peptide in complete Freund's Adjuvant. This induces Experimental Autoimmune Encephalomyelitis (EAE), an animal model for progressive multiple sclerosis. (Miller et al., Curr. Protoc. Immunol., Chapter Unit 15.1 (2007); incorporated herein by reference in its entirety). The mice were boosted […] via intraperitoneal injection with Pertussis toxin on day 0, 2, and 7 days post-immunization. Mice were sacrificed and spleens and lymph nodes collected and resuspended into single cell suspensions. Cells were cultured with MOG peptide and IL-23 to increase Th17 skewing and cultured for 3 days. Cells were harvested and approximately 15×10̂6 cells were adoptively transferred into recipient C57BL/6 mice via intraperitoneal injection. Starting day 5 for 2 weeks until day 18, mice were administered daily via intraperitoneal injection with 100 uL of PBS or A1AT (2 mg A1AT formulated in PBS). Clinical scores were measured each day at approximately the same time of day. Clinical scores measure ascending paralysis. A score of 1 is a limp tail. A score of 2 includes hind limb weakness. A score of 3 includes hind limb paralysis. A score of 4 includes forelimb weakness. A score of 5 is indicated by death. (See Miller et al.).

[4] = tested on: NMO mouse model, spines (cervical, thoracic and lumbar sections); test: Spine histopathology scores in NMO mouse model, blinded study (Example 3); type: in vivo, C57BL/6 mice; conditions: spines collected Day 18; for Demyelination (H + E) score +/− SD: hematoxylin and eosin stained section, 4 mice per cohort
Excerpt: An NMO mouse model as described above was used. Spines were collected from 4 mice per treatment cohort on Day 18 and prepared for histology. Sections from cervical, thoracic and lumbar spine regions were scored and averaged. […] Bold formatting indicates significant (p<0.05) difference of treatment compared to PBS (control).

[5] = tested on: murine model of NMO; test: Murine model of NMO, less severe disease (12×10^6 Th17-polarized cells), disease score (Example 2); type: in vivo, C57BL/6 mice; conditions: FIG. 2
Procedure: Blood-derived human A1AT was compared to Sivelestat in a murine model of NMO. A less severe disease was induced when 12×10^6 Th17-polarized cells were adoptively transferred i.p. into recipient C57BL/6 mice. To induce Th17-polarized cells, C57BL/6 mice were induced with MOG35-55/CFA. 11 days later, their spleen cells were harvested and restimulated in culture with MOG35-55 peptide (Miller et al., supra) for 3 days.
Mice received PBS, Sivelestat (0.5 mg), or A1AT (2 mg) as daily doses administered i.p. starting on Day 5 post-transfer until Day 18 post-transfer. There were 10 recipient mice per cohort. Error bars represent SEM. Points where A1AT compared to PBS and mean disease scores were significant (p<0.05) are indicated (*).

Compound	End Score (end disease score +/− SD) [1]	Mean disease scores over days measured ([1]; FIG. 3, 10 recipient mice per cohort, vs PBS or either treatment alone)	MMS +/− SD (mean maximum disease score) [1]	Mean Day of Onset +/− SEM [1]	IL-17A ([2]; spleens Day 18, 6 mice per cohort, supernatants after 3 days culture with MOG35-55, FIG. 5A)	IFN-γ ([2]; spleens Day 18, 6 mice per cohort, supernatants after 3 days culture with MOG35-55, FIG. 5B)	IL-2 ([2]; without antigenic restimulation (0 MOG peptide), compared to Mpred alone, FIG. 5D)	Clinical scores (ascending paralysis) [3]	Demyelination (H + E) score +/− SD [4]	Apoptotic Cells +/− SD (apoptotic cell counts) ([4]; 4 mice per treatment cohort)	Onset of disease ([5]; A1AT 2 mg i.p. daily Day 5 to Day 18 post-transfer)	NMO disease score ([5]; A1AT 2 mg or Sivelestat 0.5 mg i.p. daily Day 5 to Day 18 post-transfer, vs PBS)	Inflammatory foci +/− SD (number of inflammatory foci per section >20 cells) ([4]; 4 mice per treatment cohort)
alpha-1 antitrypsin [A1AT]	3.10 +/− 0.57	early efficacy compared to Mpred alone and PBS (control) on Day 5 and 6 but afterwards did not show therapeutic effect	3.50 +/− 0.00	8.4 +/− 0.4	decreased the inflammatory cytokines IL-17A compared to PBS and Mpred alone; also recorded: decreased the inflammatory cytokine IL-17A when compared to PBS and Mpred alone	decreased the inflammatory cytokine IFN-γ when compared to Mpred alone	IL-2 levels were higher without antigenic restimulation (0 MOG peptide)	significant improvement when compared to PBS treatment	1.8 +/− 0.4	2.5 +/− 0.3	delay onset of disease	reduced the NMO disease score compared to PBS (control) and was superior to Sivelestat at all days of overt signs of disease	–
C[C@H]1C[C@@H]2[C@H]([C@@H](O)C[C@@]3(C)[C@H]2CC[C@]3(O)C(=O)CO)[C@@]2(C)C=CC(=O)C=C12 [Mpred, methylprednisolone, reference compound]	2.25 +/− 0.42	–	2.95 +/− 0.44	8.5 +/− 0.4	–	–	–	–	1.2 +/− 0.3	1.3 +/− 0.9	–	–	3.0 +/− 0.9
